The conditions of this series: 101.33 kPa, Liquid.

± gives the expanded uncertainty stated by the source.

In general, mass density refers to mass per unit of volume. The speed of sound is the propagation velocity of pressure waves in the medium. One may read the viscosity as the resistance of a fluid to flow.

For `CCCCOC(C)=O` [butyl ethanoate], the mass density reads like this: (298.15 K) 876.19 ± 0.94 kg/m3; (303.15 K) 871.27 ± 0.96 kg/m3; (308.15 K) 865.43 ± 0.98 kg/m3; (313.15 K) 860.48 ± 1 kg/m3. The speed of sound amounted to 1190 ± 2 m/s (298.15 K) and 1150 ± 2 m/s (308.15 K). In addition, the viscosity is given as 0.674 ± 0.012 mPa·s (298.15 K) and 0.594 ± 0.011 mPa·s (308.15 K).

As for `CC(O)CO` (centres undefined) [1,2-propanediol], the mass density (298.15 K) was 1032.75 ± 0.32 kg/m3, the mass density (303.15 K) was 1029.02 ± 0.33 kg/m3, the mass density (308.15 K) is 1025.4 ± 0.34 kg/m3 and the mass density (313.15 K) is 1021.53 ± 0.35 kg/m3. Besides, the speed of sound is given as 1492 ± 2 m/s (298.15 K) and 1454 ± 2 m/s (308.15 K). Further, the viscosity runs as follows: (298.15 K) 43.43 ± 0.6 mPa·s; (308.15 K) 24.24 ± 0.47 mPa·s.

With `CC(=O)OCCC(C)C` [3-methylbutyl ethanoate], the mass density reads like this: (298.15 K) 866.21 ± 0.97 kg/m3; (303.15 K) 861.05 ± 0.99 kg/m3; (308.15 K) 855.85 ± 1 kg/m3; (313.15 K) 852.95 ± 1 kg/m3. In addition, the speed of sound reads like this: (298.15 K) 1195 ± 2 m/s; (308.15 K) 1154 ± 2 m/s. The viscosity reads like this: (298.15 K) 0.781 ± 0.013 mPa·s; (308.15 K) 0.747 ± 0.013 mPa·s.

With `CCOC(C)=O` [ethyl acetate], the mass density runs as follows: (298.15 K) 894.55 ± 0.88 kg/m3; (303.15 K) 888.48 ± 0.9 kg/m3; (308.15 K) 882.5 ± 0.92 kg/m3; (313.15 K) 875.97 ± 0.94 kg/m3. Moreover, the speed of sound is, setting by setting: (298.15 K) 1138 ± 2 m/s; (308.15 K) 1095 ± 2 m/s. Further, the viscosity by setting is: (298.15 K) 0.428 ± 0.008 mPa·s; (308.15 K) 0.387 ± 0.008 mPa·s.

As to `COC(C)=O` [methyl ethanoate], the mass density reads like this: (298.15 K) 926.8 ± 0.78 kg/m3; (303.15 K) 919.7 ± 0.8 kg/m3; (308.15 K) 915.22 ± 0.81 kg/m3; (313.15 K) 908.33 ± 0.84 kg/m3. In addition, the speed of sound by setting is: (298.15 K) 1150 ± 2 m/s; (308.15 K) 1103 ± 2 m/s. Besides, the viscosity by setting is: (298.15 K) 0.384 ± 0.008 mPa·s; (308.15 K) 0.351 ± 0.007 mPa·s.

As to `OCCOCCOCCO` [triethylene glycol], the mass density (298.15 K) was 1119.59 ± 0.75 kg/m3, the mass density (303.15 K) is listed as 1115.88 ± 0.69 kg/m3, the mass density (308.15 K) was determined as 1111.96 ± 0.63 kg/m3 and the mass density (313.15 K) was determined as 1109.53 ± 0.6 kg/m3. The speed of sound runs as follows: (298.15 K) 1612 ± 2 m/s; (308.15 K) 1586 ± 2 m/s. Moreover, the viscosity was 34.4 ± 0.46 mPa·s (298.15 K) and 21.31 ± 0.35 mPa·s (308.15 K).

For `OCCO` [1,2-ethanediol], the speed of sound reads like this: (298.15 K) 1662 ± 2 m/s; (308.15 K) 1635 ± 2 m/s. Further, the viscosity (298.15 K) worked out at 14.82 ± 0.19 mPa·s and the viscosity (308.15 K) was determined as 10.48 ± 0.15 mPa·s. For the same compound, the mass density by setting is: (303.15 K) 1106.63 ± 0.3 kg/m3; (313.15 K) 1099.64 ± 0.29 kg/m3.
